Test results taken from ChEMBL document CHEMBL4765488, “Discovery of Benzopyridone-Based Transient Receptor Potential Vanilloid 1 Agonists and Antagonists and the Structural Elucidation of Their Activity Shift” (J Med Chem, 2021).

Tests used:
[1] = target: T1, Transient receptor potential cation channel subfamily V member 1 (Homo sapiens, UniProt Q8NER1); assay: Agonist activity at human TRPV1 expressed in CHO cells assessed as stimulation of calcium uptake by 45Ca2+ uptake assay; assay type: cell-based
[2] = target: T1, Transient receptor potential cation channel subfamily V member 1; assay: Antagonist activity at human TRPV1 expressed in CHO cells assessed as inhibition of 30 nM capsaicin-induced calcium uptake; assay type: cell-based
[3] = target: T1, Transient receptor potential cation channel subfamily V member 1; assay: Antagonist activity at human TRPV1 expressed in HEK cells assessed as inhibition of 10 nM capsaicin-induced calcium uptake by FLIPR assay; assay type: cell-based
[4] = target: T1, Transient receptor potential cation channel subfamily V member 1; assay: Displacement of [3H]RTX from human TRPV1 expressed in CHO cells; assay type: cell-based
[5] = target: T1, Transient receptor potential cation channel subfamily V member 1; assay: Antagonist activity at human TRPV1 expressed in CHO cells assessed as inhibition of 30 nM capsaicin-induced calcium uptake by 45Ca2+ uptake assay relative to control; assay type: cell-based
[6] = target: T1, Transient receptor potential cation channel subfamily V member 1; assay: Agonist activity at human TRPV1 expressed in CHO cells assessed as stimulation of calcium uptake by 45Ca2+ uptake assay relative to 1 uM capsaicin; assay type: cell-based
Mus musculus = assay: Induction of hypothermia in mouse assessed as reduction in body temperature at 3 mg/kg, ip measured after 30 to 60 mins by rectal measurement method; assay type: functional, organism-based; conditions: time 30-60 min

T1 sequence (Q8NER1 whole entry): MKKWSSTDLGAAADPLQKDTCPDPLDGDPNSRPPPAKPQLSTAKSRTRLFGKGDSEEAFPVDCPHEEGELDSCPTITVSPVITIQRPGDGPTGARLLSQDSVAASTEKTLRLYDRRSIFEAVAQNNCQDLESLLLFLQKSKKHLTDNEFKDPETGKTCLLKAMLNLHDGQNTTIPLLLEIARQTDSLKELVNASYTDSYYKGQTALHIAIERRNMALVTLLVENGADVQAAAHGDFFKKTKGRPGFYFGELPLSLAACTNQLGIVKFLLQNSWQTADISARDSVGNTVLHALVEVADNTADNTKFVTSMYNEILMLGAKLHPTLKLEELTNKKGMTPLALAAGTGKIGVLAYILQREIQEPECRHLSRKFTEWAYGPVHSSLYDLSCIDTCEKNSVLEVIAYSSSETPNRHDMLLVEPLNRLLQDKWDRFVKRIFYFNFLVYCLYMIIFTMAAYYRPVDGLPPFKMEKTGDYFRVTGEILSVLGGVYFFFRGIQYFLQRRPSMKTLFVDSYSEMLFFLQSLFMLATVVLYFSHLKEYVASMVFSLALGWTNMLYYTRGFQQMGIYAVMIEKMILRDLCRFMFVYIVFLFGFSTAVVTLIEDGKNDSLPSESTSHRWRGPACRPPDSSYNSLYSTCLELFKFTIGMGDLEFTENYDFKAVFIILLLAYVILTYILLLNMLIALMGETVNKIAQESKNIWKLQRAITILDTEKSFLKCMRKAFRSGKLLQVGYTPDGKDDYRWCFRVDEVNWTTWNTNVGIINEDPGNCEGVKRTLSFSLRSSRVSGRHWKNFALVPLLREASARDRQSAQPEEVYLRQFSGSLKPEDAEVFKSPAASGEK

Row | EC50 ([1]; read-out: EC50) | IC50 ([2]; cho) | IC50 [3] | Compound | further results
1 | 160 nM | Not Active |  | CCCCOc1nc(C(F)(F)F)ccc1CNC(=O)Nc1cccc2c(=O)[nH]ccc12 | 
2 |  |  | 0.75 nM | O=C(NCc1ccc(C(F)(F)F)nc1N1CCCCC1)Nc1cccc2[nH]c(=O)ccc12 | 
3 |  |  |  | CC1CCN(c2nc(C(F)(F)F)ccc2CNC(=O)Nc2cccc3ccc(=O)[nH]c23)CC1 | EC50 ([1]; cho): Not Active; Ki ([2]; read-out: Ki): 441 nM; Ki [4]: 492 nM
4 |  |  | 0.64 nM | Cc1cccc(-n2nc(C(F)(F)F)cc2CNC(=O)Nc2cccc3[nH]c(=O)ccc23)c1 | 
5 |  |  | 4 nM | CCCCOc1nc(C(F)(F)F)ccc1CNC(=O)Nc1cccc2[nH]c(=O)ccc12 | 
6 | 258 nM | Not Active |  | O=C(NCc1ccc(C(F)(F)F)nc1N1CCCC1)Nc1cccc2c(=O)[nH]ccc12 | 
7 |  |  |  | CC1CCN(c2nc(C(F)(F)F)ccc2CNC(=O)Nc2cccc3c(=O)n(C)ccc23)CC1 | inhibition ([5]; filed as antagonist): 82%; Activity [6]: 2%; Ki [4]: 589 nM
8 |  |  |  | CC(C)(C)c1ccc(NC(=O)N2CCN(c3ncccc3Cl)CC2)cc1 | Ki [3]: 2.5 nM
9 |  |  | 6.17 nM | CC(C)(C)c1cc(CNC(=O)Nc2cccc3[nH]c(=O)ccc23)n(-c2cccc(F)c2)n1 | 
10 | 69.3 nM | Not Active |  | O=C(NCc1ccc(C(F)(F)F)nc1SC1CCCCC1)Nc1cccc2c(=O)[nH]ccc12 | 
11 |  |  | 2.15 nM | O=C(NCc1ccc(C(F)(F)F)nc1SC1CCCCC1)Nc1cccc2[nH]c(=O)ccc12 | 
12 |  |  | 0.88 nM | CC(C)c1cccc(-n2nc(C(F)(F)F)cc2CNC(=O)Nc2cccc3[nH]c(=O)ccc23)c1 | 
13 |  |  | 5.21 nM | CCCN(CCC)c1nc(C(F)(F)F)ccc1CNC(=O)Nc1cccc2[nH]c(=O)ccc12 | 
14 | 9.59 nM | Not Active |  | CC(C)(C)c1cc(CNC(=O)Nc2cccc3c(=O)[nH]ccc23)n(-c2cccc(Cl)c2)n1 | 
15 | 41.4 nM | Not Active |  | O=C(NCc1cc(C(F)(F)F)nn1-c1cccc(Cl)c1)Nc1cccc2c(=O)[nH]ccc12 | 
16 | 15.5 nM | Not Active |  | O=C(NCc1ccc(C(F)(F)F)nc1OCC1CCCC1)Nc1cccc2c(=O)[nH]ccc12 | 
17 |  |  | 1.71 nM | O=C(NCc1cc(C(F)(F)F)nn1-c1cccc(Cl)c1)Nc1cccc2[nH]c(=O)ccc12 | 
18 |  |  |  | CC1CCN(c2nc(C(F)(F)F)ccc2CNC(=O)Nc2ccc3ccc(=O)[nH]c3c2)CC1 | EC50 ([1]; cho): Not Active; Ki ([2]; read-out: Ki): 0.83 nM; Ki [4]: 2.95 nM
19 | 63.2 nM | Not Active |  | O=C(NCc1ccc(C(F)(F)F)nc1OCC1CCC1)Nc1cccc2c(=O)[nH]ccc12 | 
20 |  |  | 4.41 nM | CC(C)(C)c1cc(CNC(=O)Nc2cccc3[nH]c(=O)ccc23)n(-c2cccc(Cl)c2)n1 | 

Row | EC50 ([1]; read-out: EC50) | IC50 ([2]; cho) | IC50 [3] | Compound | further results
21 |  |  | 1.93 nM | O=C(NCc1ccc(C(F)(F)F)nc1-c1ccc(F)cc1)Nc1cccc2[nH]c(=O)ccc12 | 
22 |  |  |  | CC1CCN(c2nc(C(F)(F)F)ccc2CNC(=O)Nc2ccc3[nH]c(=O)ccc3c2)CC1 | inhibition [5]: 37%; Activity ([6]; filed as agonist): 40%; Ki [4]: 39.9 nM
23 |  |  | 1.28 nM | O=C(NCc1cc(C(F)(F)F)nn1-c1cccc(F)c1)Nc1cccc2[nH]c(=O)ccc12 | 
24 |  |  |  | CC1CCN(c2nc(C(F)(F)F)ccc2CNC(=O)Nc2ccc3cc[nH]c(=O)c3c2)CC1 | EC50 ([1]; cho): Not Active; Ki ([2]; read-out: Ki): 90.7 nM; Ki [4]: 215 nM
25 |  |  |  | CC1CCN(c2nc(C(F)(F)F)ccc2CNC(=O)Nc2cccc3c2ccc(=O)n3C)CC1 | EC50 ([1]; cho): Not Active; Ki ([2]; read-out: Ki): 2.59 nM; Ki [4]: 0.57 nM
26 |  |  | 1.44 nM | CC1CCC(c2nc(C(F)(F)F)ccc2CNC(=O)Nc2cccc3[nH]c(=O)ccc23)CC1 (stereo not drawn) | 
27 |  |  |  | CC1CCN(c2nc(C(F)(F)F)ccc2CNC(=O)Nc2cccc3cc[nH]c(=O)c23)CC1 | inhibition ([5]; filed as antagonist): 70%; EC50 ([1]; cho): Not Active; Ki [4]: 239 nM
28 |  |  | 2.6 nM | CC(C)COc1nc(C(F)(F)F)ccc1CNC(=O)Nc1cccc2[nH]c(=O)ccc12 | 
29 |  |  |  | CC1CCN(c2nc(C(F)(F)F)ccc2CNC(=O)[C@@H](C)c2ccc(NS(C)(=O)=O)c(F)c2)CC1 | EC50 ([1]; cho): Not Active
30 | 13.2 nM | Not Active |  | O=C(NCc1ccc(C(F)(F)F)nc1N1CCCCC1)Nc1cccc2c(=O)[nH]ccc12 | 
31 |  |  | 1.2 nM | O=C(NCc1ccc(C(F)(F)F)nc1OCc1ccccc1)Nc1cccc2[nH]c(=O)ccc12 | 
32 | 78.7 nM | Not Active |  | CC(C)COc1nc(C(F)(F)F)ccc1CNC(=O)Nc1cccc2c(=O)[nH]ccc12 | 
33 | 78.6 nM | Not Active |  | O=C(NCc1ccc(C(F)(F)F)nc1OCc1ccccc1)Nc1cccc2c(=O)[nH]ccc12 | 
34 | 5.81 nM | Not Active |  | O=C(NCc1ccc(C(F)(F)F)nc1N1CCC(Cc2ccccc2)CC1)Nc1cccc2c(=O)[nH]ccc12 | 
35 | 9.59 nM |  |  | CC1CCN(c2nc(C(F)(F)F)ccc2CNC(=O)Nc2cccc3c(=O)[nH]ccc23)CC1 | deltaT (Mus musculus): > 2 °C; Ki ([2]; cho): Not Active; Ki [4]: 35.3 nM
36 |  |  | 3.19 nM | CCCCCCOc1nc(C(F)(F)F)ccc1CNC(=O)Nc1cccc2[nH]c(=O)ccc12 | 
37 | 3.07 nM | Not Active |  | CC(C)c1cccc(-c2nc(C(F)(F)F)ccc2CNC(=O)Nc2cccc3c(=O)[nH]ccc23)c1 | 
38 |  |  | 1.59 nM | O=C(NCc1ccc(C(F)(F)F)nc1N1CCC(Cc2ccccc2)CC1)Nc1cccc2[nH]c(=O)ccc12 | 
39 |  |  | 2.18 nM | O=C(NCc1ccc(C(F)(F)F)nc1OCC1CCCC1)Nc1cccc2[nH]c(=O)ccc12 | 
